Data as given in paper PMC9585581, “Developing Photoaffinity Probes for Dopamine Receptor D2 to Determine Targets of Parkinson’s Disease Drugs” (ACS Chemical Neuroscience, 2022).
“Also recorded” adds a separate entry of the source.

System: rat whole brain proteins
Experiment: Rat whole brain photo-cross-linking, biotin-streptavidin pulldown and LC/MS proteomics (interactome)
Format: binding, Sprague Dawley rat
Conditions: probe 50 μM; rat whole brain minus olfactory bulb
Text: Whole brain assays were designed to assay the binding partners of 5 and 7, as well as a control for the inherent binding of the benzophenone cross-linker using molecule 16 (Figure 7). […] We chose this methodology to maximize the amount of unique hits we were likely to record. A drawback to this assay, however, is that GPCRs need highly specific extraction/purification conditions to be detected by LC-MS (or other protein detection methodologies) at the end point. Thus, by biasing our assay toward a “wide lens” to record a picture of diverse interactions, we missed the specific focus necessary to observe DRD2 and structurally related GPCRs, and we were unable to directly observe DRD2 in the proteomic analysis.
To perform the assay, the whole brain minus the olfactory bulb from an adult female Sprague Dawley rat was homogenized and treated with probes or linker control 16 at a 50 μM concentration and photo-cross-linked. A streptavidin resin was used to deplete endogenous biotin and then clicked with azido biotin, followed by streptavidin pulldown. The streptavidin beads were processed by tryptic digest, followed by LC/MS proteomic analysis. […]
To prepare the homogenate, adult rat brain tissue was microdissected and the olfactory bulb was discarded and sliced into 1 mm pieces. […] The total protein concentration was determined via BCA assay (Pierce) and adjusted to 6 mg/mL. […]

Row | Structure (SMILES) | protein hits of the pulldown (in words)
1 | C#CCOc1ccc(C(=O)c2ccc(CNCCc3cccc4c3CC(=O)N4)cc2)cc1 [Compound 5, 4-(2-((4-(4-(Prop-2-yn-1-yloxy)benzoyl)benzyl)amino)ethyl)indolin-2-one] | muscarinic acetylcholine receptor M1 and CB1 cannabinoid receptor-interacting protein 1; also recorded: bound other protein networks including the retrograde endocannabinoid signaling pathway, neuronal nitric oxide synthase, GABA receptor components, and muscarinic acetylcholine receptor M1
2 | C#CCOc1ccc(C(=O)c2ccc(CN[C@H]3CCc4nc(N)sc4C3)cc2)cc1 [Compound 7, (S)-(4-(((2-Amino-4,5,6,7-tetrahydrobenzo[d]thiazol-6-yl)amino)methyl)phenyl)(4-(prop-2-yn-1-yloxy)phenyl)methanone] | bound other protein networks including the retrograde endocannabinoid signaling pathway, neuronal nitric oxide synthase, GABA receptor components, and muscarinic acetylcholine receptor M1
